# From patent publication US20080194492A1, “Plant Extracts for the Treatment of Incresed Bone Resorption” (priority 2003, published 2008)
# “Also recorded” adds a separate entry of the source.
# Tested on: osteoclasts of new-born rats
# Assay: osteoclast pit assay (in vitro resorption activity of osteoclasts on ivory slices)
# Format: cell-based, rat
# Conditions: for magnitude of the inhibition when PTH is added compared with without (in words): PTH 10^−8 M added to cultures; for inhibition of osteoclast resorption activity in vitro (in words): osteoclast pit assay, dose not given
# Experimental: It will be appreciated that the osteoclast pit assay is a well established in vitro model of bone resorption and readily known to one skilled in the art. Briefly, medium containing a sample to be tested, e.g. 30 mg or less of freeze-dried hydrophilic fraction A per ml, is added to osteoclasts of new-born rats settled on ivory slices. After 24 hours of incubation, the tartrate-resistant acid phosphatase positive multi-nucleated cells, i.e. osteoclasts, are counted. Subsequently, the number of resorption pits is determined. […] For the analysis of statistical significance, the ratios of the treated groups±their respective SEMs are compared to the 95% confidence interval of the SEM of the negative control. […] The inhibitory effect on osteoclasts is assessed by counting the osteoclast resorption pits on the ivory slice. […] To assess in vitro the bone resorbing inhibitory activity, the osteoclast pit assay is used. Medium containing 30 mg or less of freeze-dried fraction per ml is added to osteoclasts of new-born rats settled on ivory slices. After 24 hours of incubation, the tartrate-resistant acid phosphatase positive multi-nucleated cells, i.e. osteoclasts, are counted. Subsequently, the number of resorption pits is determined. […] For the analysis of statistical significance, the ratios of the treated groups±their respective SEMs are compared to the 95% confidence interval of the SEM of the negative control. • a) TLC-Screening and Yields of the RP-MPLC Fractionations. Bioassay (in vitro assessment of osteoclast activity). Osteoclasts were isolated from femora and tibiae of 2-day-old rats and settled for 40 min onto 4×4 mm ivory slices used as the mineralized substrate. After washing off non-adherent cells, individual slices were transferred to 48-well tissue culture plates and incubated for 24 h at 37° C. in a 5% CO2/air atmosphere (14;15) in medium containing 10% fetal bovine serum (FBS) with or without the material to be tested. The concentration of bicarbonate in the MEM Earle's medium was reduced to 15 mM by addition of 12M HCl. In each experiment calcitonin (salmon calcitonin, Novartis Pharma, Basel, Switzerland) was added as positive control at the concentration of 10^-11 M or 10^-12 M. In one experiment parathyroid hormone (PTH; bovine 1-34, Bachem, Bubendorf, Switzerland) was added at the concentration of 10^-8 M, in order to stimulate bone resorption. For each material to be tested 8 slices were used, for the untreated control 2×8 slices were used. After fixation osteoclasts were stained for tartrate-resistant acid-phosphatase (TRAP) (kit 386-A, Sigma, Buchs, Switzerland) and were counted blinded as TRAP positive (TRAP+) multinucleated (more than 2 nuclei) cells (MNC). After removing the cells, the slices were sputter coated with gold and the resorption pits counted blinded in a process described in Vitté, C.; Fleisch, H.: Guenther, H. L. Bisphosphonates induce osteoblasts to secrete an inhibitor of osteoclast-mediated resorption. Endocrinology 1996, 137, 2324-2333. Osteoclastic resorption activity is calculated as the ratio: resorption pits/TRAP+MNC.
compound,measurement,setting,value
"C/C=C/[S+]([O-])C[C@H](NC(=O)CC[C@H](N)C(=O)O)C(=O)O (relative stereo) [A1-4C, γ-L-glutamyl-trans-S-1-propenyl-L-cysteine sulfoxide]",activity on osteoclast resorption (in words),"0.53 mg/mL, i.e. 1.7 mM GPCS",active
same,Pits/TRAP+ cells ± SEM,"0.53 mg/mL, neg. control 0.739 ± 0.138",0.325 ± 0.108
same,inhibition of osteoclast resorption activity (in words),2 mM,not significant
same,resorption activity of osteoclasts (in words),"2, 4 and 8 mM, with or without PTH 10^−8 M (FIG. 4)",inhibits the resorption activity of osteoclasts dose-dependently
same,magnitude of the inhibition when PTH is added compared with without (in words),,somewhat smaller
same,minimal effective dose,cultures not stimulated with PTH,around 2 mM
same,"minimal effective dose, graphical interpolation from FIG. 4",cultures stimulated with PTH,around 3 mM
same,inhibition of osteoclast resorption activity in vitro (in words),,only active fraction
same,inhibition of osteoclast resorption activity in vitro (in words),listed as Fraction A 1-4C,inhibited osteoclast activity nearly as strong as fraction A 1-4
same,inhibition of osteoclast resorption activity in vitro (in words),listed as Fraction A1-4C,inhibits osteoclast activity similar to fraction A1-4
same,inhibition of osteoclast resorption activity in vitro (in words),listed as fraction A1-4C,significantly (p<0.5) inhibit bone resorption; also recorded: inhibiting osteoclast activity
"CT: salmon calcitonin, Novartis Pharma, positive control [reference compound]",Pits/TRAP+ cells ± SEM,"10^−12 M, 24 h, neg. control 0.489 ± 0.128",0.061 ± 0.063
same,Pits/TRAP+ cells ± SEM,"10^−12 M, neg. control 0.739 ± 0.138",0.116 ± 0.030
same,magnitude of the inhibition when PTH is added compared with without (in words),,somewhat smaller
